The values below are quoted from earlier work in patent EP1982712A1 (priority 2005, dated 2007).

The conditions of this data set: for Clearance (route of elimination) / distribution volumes / time to reach the maximum concentration: in vivo; for time to reach the maximum concentration: po.

As to `CCC(C)n1ncn(-c2ccc(N3CCN(c4ccc(OCC5COC(Cn6cncn6)(c6ccc(Cl)cc6Cl)O5)cc4)CC3)cc2)c1=O` (stereo not shown) [itraconazole, Itraconazole], the “Clearance (route of elimination)” value was “cleared mainly through hepatic metabolism”, the distribution volumes entry was “about 10.7 l/kg” and the “time to reach the maximum concentration” value was “up to four”. The bioavailability entry (after oral administration) is “about 50%”.

In the case of `OC(Cn1cncn1)(Cn1cncn1)c1ccc(F)cc1F` [fluconazole, Fluconazole], the “Clearance (route of elimination)” value is reported as “eliminated in a higher proportion in urine”, the distribution volumes was 0.7 to 1 L/kg and the “time to reach the maximum concentration” value is given as “two”.
